Measured values reported in ChEMBL document CHEMBL1150259, “Identification of Plasmodium falciparum spermidine synthase active site binders through structure-based virtual screening” (J Med Chem, 2008).
Calls of active or inactive are those of the source. The rule behind the calls is not given here.

What was measured:
[1] = biological target: T1, Spermidine synthase (Plasmodium falciparum) (UniProt Q9NFS5); test: Binding affinity to Plasmodium falciparum spermidine synthase by saturation transfer difference-NMR experiment relative to methylthioadenosine
T1 sequence (whole entry): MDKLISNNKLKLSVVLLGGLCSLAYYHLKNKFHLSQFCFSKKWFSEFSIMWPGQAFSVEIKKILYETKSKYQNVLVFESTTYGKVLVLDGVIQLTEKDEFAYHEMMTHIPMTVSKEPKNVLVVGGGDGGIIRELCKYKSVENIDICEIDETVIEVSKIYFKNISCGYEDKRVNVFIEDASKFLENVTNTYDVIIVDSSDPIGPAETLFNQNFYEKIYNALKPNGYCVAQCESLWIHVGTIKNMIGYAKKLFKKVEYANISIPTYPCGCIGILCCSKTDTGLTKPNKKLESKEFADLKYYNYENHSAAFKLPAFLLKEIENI

[2] = biological target: T1, Spermidine synthase (Plasmodium falciparum); test: Binding affinity to Plasmodium falciparum spermidine synthase by saturation transfer difference-NMR experiment
Plasmodium falciparum = test: Growth inhibition of Plasmodium falciparum; type: functional, organism-based
Spermidine synthase = biological target: T2, Spermidine synthase (Plasmodium falciparum, UniProt Q9NFS5); test: Inhibition of Plasmodium falciparum spermidine synthase
T2 sequence (Q9NFS5 whole entry): T1 sequence (whole entry)

How did the Activity [1] turn out when `NCCCCCc1nc2ccccc2[nH]1` was run?
The Activity was “Active”.

With `N=c1c(N)c(O)ncn1CC(=O)c1ccc(I)cc1` as the molecule, how does the Activity [2] read?
The Activity was “inactive”.

`Nc1nnc(SCC(=O)NCC2CN(Cc3ccccc3)CCO2)s1` (centres undefined) was tested. Which Activity [2] did it give?
Its Activity is “inactive”.

For `O=C(c1ccc2cn[nH]c2c1)N1CCN(c2ccccn2)CC1`, which Activity [2] is on record?
The Activity was “inactive”.

For `O=C(CSc1nnc[nH]1)c1ccc2c(c1)OCCO2`, which Activity [2] is on record?
The Activity was “inactive”.

How did the Activity [2] turn out when `Nc1nc(N)nc(SCC(=O)NCc2ccc(F)cc2)n1` was run?
The Activity was “inactive”.

What does the source list for `Nc1ncnc2c1ncn2[C@@H]1O[C@H](CO)[C@@H](O)[C@H]1O`?
Activity [1]: Active; Activity [2]: Active

With `O=C(c1ccc2[nH]cnc2c1)N1CCN(C/C=C/c2ccccc2)CC1` as the molecule, how does the Activity [2] read?
Its Activity is “Active”.

With `NC(=O)c1ncn([C@@H]2O[C@H](CO)[C@@H](O)[C@H]2O)n1` as the molecule, how does the Activity [2] read?
The Activity was “inactive”.

For `NCCSC1CC(=O)N(c2ccc(F)cc2)C1=O` (centres undefined), which Activity [2] is on record?
The Activity was “inactive”.

Which IC50 (Plasmodium falciparum) does the source give for `CC1CCC(N)CC1` (centres undefined) here?
Its IC50 is 34 µM.

What about the IC50 (Spermidine synthase) of the same molecule?
Its IC50 is 1.4 µM.

How did the Activity [2] turn out when `Cn1c(SCC(=O)c2ccc3[nH]c(=O)oc3c2)nnc1-c1ccncc1` was run?
Its Activity is “inactive”.

Which Activity [2] does the source give for `O=C1C=C(NCCc2c[nH]cn2)CC1` here?
Its Activity is “inactive”.

For `O=C(CSc1cnn[nH]1)Nc1ncccn1`, which Activity [2] is on record?
The Activity was “inactive”.

With `Nc1nnc(SCC(=O)NCc2ccc3c(c2)OCO3)[nH]1` as the molecule, how does the Activity [2] read?
Its Activity is “inactive”.

`O=C1NC(=S)NC(=O)C1=CNCCc1cnc[nH]1` was tested. Which Activity [2] did it give?
The Activity was “inactive”.

With `O=C(CSc1nnc[nH]1)Nc1nccs1` as the molecule, how does the Activity [2] read?
The Activity was “inactive”.

With `NCCCCCCCNC(=O)Cc1ncc(C(F)(F)F)cc1Cl` as the molecule, how does the Activity [2] read?
The Activity was “inactive”.

`O=C(CSc1nccc(=O)[nH]1)NCc1ccco1` was tested. Which Activity [2] did it give?
The Activity was “inactive”.

`CSC[C@H]1O[C@@H](n2cnc3c(N)ncnc32)[C@H](O)[C@@H]1O` [METHYLTHIOADENOSINE] was tested. Which IC50 (Spermidine synthase) did it give?
Its IC50 is 159 µM.

Which Activity [2] does the source give for `NCCCCCc1nnc(SCC(=O)Nc2cccc(Cl)c2)o1` here?
Its Activity is “inactive”.

How did the Activity [2] turn out when `CCCCc1nnc(NC(=O)CSc2nnc[nH]2)s1` was run?
Its Activity is “inactive”.

What does the source list for `Nc1nnc(SCC(=O)Nc2cccc(Oc3ccccc3)c2)[nH]1`?
Activity [1]: inactive; Activity [2]: Active

How did the Activity [2] turn out when `O=C(C1CCCCN1)N1CCN(Cc2cccnc2)CC1` (centres undefined) was run?
The Activity was “inactive”.

With `NC(=O)CSc1nc2ncnc(N)c2[nH]1` as the molecule, how does the Activity [1] read?
Its Activity is “Active”.

And the Activity [2]?
The Activity was “Active”.
